Data from ChEMBL document CHEMBL1287720, “Inhibition of human neuraminidase 3 (NEU3) by C9-triazole derivatives of 2,3-didehydro-N-acetyl-neuraminic acid” (Bioorg Med Chem Lett, 2010).

Each compound was assayed against T1, Sialidase-3 (Homo sapiens, UniProt Q9UQ49) (assay: Inhibition of human neuraminidase 3).
T1 sequence (Q9UQ49 whole entry): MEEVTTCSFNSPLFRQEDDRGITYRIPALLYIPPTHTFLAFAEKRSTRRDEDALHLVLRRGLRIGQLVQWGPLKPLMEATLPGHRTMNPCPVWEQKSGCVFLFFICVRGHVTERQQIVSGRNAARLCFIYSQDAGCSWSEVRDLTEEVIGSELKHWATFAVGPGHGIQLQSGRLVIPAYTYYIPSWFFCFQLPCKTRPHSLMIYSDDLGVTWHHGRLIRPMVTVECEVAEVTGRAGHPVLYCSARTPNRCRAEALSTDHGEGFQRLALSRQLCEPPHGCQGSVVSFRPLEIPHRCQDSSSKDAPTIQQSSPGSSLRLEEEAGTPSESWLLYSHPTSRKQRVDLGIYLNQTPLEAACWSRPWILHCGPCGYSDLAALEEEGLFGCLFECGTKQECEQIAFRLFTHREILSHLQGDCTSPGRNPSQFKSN

| Structure (SMILES) | IC50 |
| --- | --- |
| CC(=O)N[C@H]1[C@H]([C@H](O)[C@H](O)CO)O[C@@](O)(C(=O)O)C[C@@H]1O | Not Active |

These compounds were tested against T1, Sialidase-3 (assay: Inhibition of human neuraminidase 3 assessed as inhibition of GM3 hydrolysis).

| Structure (SMILES) | IC50 |
| --- | --- |
| CCOC(=O)C1=C[C@@H](OC(CC)CC)[C@H](NC(C)=O)[C@@H](N)C1 [OSELTAMIVIR] | > 10000 µM |

The compounds below were run against T1, Sialidase-3 (assay: not given).

| Structure (SMILES) | IC50 |
| --- | --- |
| CC(=O)N[C@H]1[C@H]([C@H](O)[C@H](O)Cn2cc(CO)nn2)OC(C(=O)O)=C[C@@H]1O | 300 µM |
| O=C(Cn1cc(CO)nn1)N[C@H]1[C@H]([C@H](O)[C@H](O)CO)OC(C(=O)O)=C[C@@H]1O | > 500 µM |
| CC(=O)N[C@H]1[C@H]([C@H](O)[C@H](O)Cn2cc(C(C)(C)O)nn2)OC(C(=O)O)=C[C@@H]1O | 300 µM |
| CC(C)(O)c1cn(CC(=O)N[C@H]2[C@H]([C@H](O)[C@H](O)CO)OC(C(=O)O)=C[C@@H]2O)nn1 | > 500 µM |
| [N-]=[N+]=NCC(=O)N[C@H]1[C@H]([C@H](O)[C@H](O)CO)OC(C(=O)O)=C[C@@H]1O | 21 µM |
| O=C(Cn1cc(-c2ccccc2)nn1)N[C@H]1[C@H]([C@H](O)[C@H](O)CO)OC(C(=O)O)=C[C@@H]1O | > 500 µM |
| O=C(Cn1cc(COc2ccccc2)nn1)N[C@H]1[C@H]([C@H](O)[C@H](O)CO)OC(C(=O)O)=C[C@@H]1O | > 500 µM |
| O=C(Cn1cc(CCCO)nn1)N[C@H]1[C@H]([C@H](O)[C@H](O)CO)OC(C(=O)O)=C[C@@H]1O | > 500 µM |
| CCOC(OCC)c1cn(CC(=O)N[C@H]2[C@H]([C@H](O)[C@H](O)CO)OC(C(=O)O)=C[C@@H]2O)nn1 | > 500 µM |
| CC(=O)N[C@H]1[C@H]([C@H](O)[C@H](O)Cn2cc(COc3ccccc3)nn2)OC(C(=O)O)=C[C@@H]1O | 45 µM |
| CCCCCCc1cn(C[C@@H](O)[C@@H](O)[C@@H]2OC(C(=O)O)=C[C@H](O)[C@H]2NC(C)=O)nn1 | 23 µM |
| CCOC(OCC)c1cn(C[C@@H](O)[C@@H](O)[C@@H]2OC(C(=O)O)=C[C@H](O)[C@H]2NC(C)=O)nn1 | 130 µM |
| CC(=O)N[C@H]1[C@H]([C@H](O)[C@H](O)CN=[N+]=[N-])OC(C(=O)O)=C[C@@H]1O | 70 µM |
| CCCCCCc1cn(CC(=O)N[C@H]2[C@H]([C@H](O)[C@H](O)CO)OC(C(=O)O)=C[C@@H]2O)nn1 | > 500 µM |
| CCOc1cn(CC(=O)N[C@H]2[C@H]([C@H](O)[C@H](O)CO)OC(C(=O)O)=C[C@@H]2O)nn1 | > 500 µM |
| CC(=O)N[C@H]1[C@H]([C@H](O)[C@H](O)Cn2cc(-c3ccccc3)nn2)OC(C(=O)O)=C[C@@H]1O | 20 µM |
| CC(=O)N[C@H]1[C@H]([C@H](O)[C@H](O)Cn2cc(CCO)nn2)OC(C(=O)O)=C[C@@H]1O | 400 µM |
| CC(=O)N[C@H]1[C@H]([C@H](O)[C@H](O)Cn2cc(CCCO)nn2)OC(C(=O)O)=C[C@@H]1O | 500 µM |
| O=C(Cn1cc(CCO)nn1)N[C@H]1[C@H]([C@H](O)[C@H](O)CO)OC(C(=O)O)=C[C@@H]1O | > 500 µM |
| CC(=O)N[C@H]1[C@H]([C@H](O)[C@H](O)CO)OC(C(=O)O)=C[C@@H]1O [NEU5AC2EN] | 48 µM |
| CCOc1cn(C[C@@H](O)[C@@H](O)[C@@H]2OC(C(=O)O)=C[C@H](O)[C@H]2NC(C)=O)nn1 | 300 µM |

These compounds were tested against T1, Sialidase-3 (assay: Inhibition of human neuraminidase 3 assessed as inhibition of 4-methylumbelliferyl-alpha-D-N-acetylneuraminic acid hydrolysis).

| Structure (SMILES) | IC50 |
| --- | --- |
| CC(=O)NC[C@@H](O)[C@@H](O)[C@@H]1OC(C(=O)O)=C[C@H](O)[C@H]1NC(C)=O | > 1000 µM |
| CC(=O)N[C@H]1[C@H]([C@H](O)[C@H](O)CNC(=O)c2ccccc2)OC(C(=O)O)=C[C@@H]1O | 320 µM |
| CC(=O)N[C@H]1[C@H]([C@H](O)[C@H](O)CO)OC(C(=O)O)=C[C@@H]1O [NEU5AC2EN] | 43 µM |
